As a reminder, the IC50 is the concentration needed to halve the response being measured.

Molecules are shown by their SMILES. Where a name gives a salt, the structure may show the parent alone.

wild type human HSD17B13, sequence (Q7Z5P4 20-300): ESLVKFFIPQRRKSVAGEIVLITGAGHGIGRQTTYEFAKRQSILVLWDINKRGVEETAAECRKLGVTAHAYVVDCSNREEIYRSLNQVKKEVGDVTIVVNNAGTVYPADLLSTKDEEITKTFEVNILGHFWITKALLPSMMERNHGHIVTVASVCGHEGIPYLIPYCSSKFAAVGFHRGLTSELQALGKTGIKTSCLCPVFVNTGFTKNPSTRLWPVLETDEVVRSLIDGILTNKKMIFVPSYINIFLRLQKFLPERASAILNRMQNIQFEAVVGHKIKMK

This experiment has as its target wild type human HSD17B13 (Homo sapiens (Human), UniProt Q7Z5P4). The experiment can be described thus: HEK_Beta-Est LCMS_IC50_Tekcel, whole-cell HEK-HSD17B13 inhibition assay, estrone production by LCMS. The following applies: geometric mean, HEK cells stably expressing wild type human HSD17B13, 25 μM FAC beta-estradiol, read-out: HEK_Beta-Est LCMS_IC50—Tekcel GMean IC50. It is filed as cell-based. The method, then:
HEK_Beta-Est LCMS_IC50_Tekcel
Inhibition potency of test compounds was determined using a whole-cell HEK-HSD17B13 inhibition assay, utilizing a LCMS readout.
HSD17B13 uses the oxidized form of nicotinamide adenine dinucleotide (NAD+) as a cofactor during metabolism of beta-estradiol (substrate), converting NAD+ to the reduced form (NADH) and beta-estradiol to its product (estrone). Estrone production is quantified by LCMS, and used as a measure of HSD17B13 enzyme activity.
([…]: 5% CO2). […] Growth media was then removed from the cell plates and replaced with 10 μL of 2×FAC test compound, and incubated for 1 hour (with lid) at 37° C. […] The reaction was incubated for 2 hours (with lid) at 37° C. […] Amount of product (estrone) was then quantified by LCMS. Data expressed as product area ratio (PAR) were then normalized to control wells using Activity Base (IDBS). Zero percent effect (ZPE) was defined as PAR generated from uninhibited HSD17B13 (vehicle control).
As to `O=C(NC[C@H]1CC[C@H](n2cc3cc(-c4cscn4)ccc3n2)CC1)c1cc(F)c(O)c(F)c1` [Example 155, 3,5-difluoro-4-hydroxy-N-({(1r,4r)-4-[5-(1,3-thiazol-4-yl)-2H-indazol-2-yl]cyclohexyl}methyl) benzamide], the 50% inhibitory concentration (IC50) amounted to 120 nM.

As to `Cn1cc(-c2ccc3cn([C@H]4CC[C@H](CNC(=O)c5cc(F)c(O)c(F)c5)CC4)nc3c2)ccc1=O` [Example 104, 3,5-difluoro-4-hydroxy-N-({(1r,4r)-4-[6-(1-methyl-6-oxo-1,6-dihydropyridin-3-yl)-2H-indazol-2-yl]cyclohexyl}methyl) benzamide], the IC50 was 370 nM.

On to `O=C(NC[C@H]1CC[C@H](n2cc3ccc(-c4cnn(CCO)c4)cc3n2)CC1)c1cc(F)c(O)c(F)c1` [Example 160, 3,5-difluoro-4-hydroxy-N-{[(1r,4r)-4-{6-[1-(2-hydroxyethyl)-1H-pyrazol-4-yl]-2H-indazol-2-yl}cyclo-hexyl]methyl} benzamide, trifluoroacetate salt], for which the IC50 is 400 nM.

Turning to `O=C(NC[C@H]1CC[C@H](n2cc3ccc(-n4cncn4)cc3n2)CC1)c1cc(F)c(O)c(F)c1F` [Example 165, 2,3,5-trifluoro-4-hydroxy-N-({(1r,4r)-4-[6-(1H-1,2,4-triazol-1-yl)-2H-indazol-2-yl]cyclohexyl}methyl) benzamide], the IC50 came to 420 nM.

Consider `O=C(NC[C@H]1CC[C@H](n2cc3ccc(-c4cnn(C(CO)CCl)c4)cc3n2)CC1)c1cc(F)c(O)c(F)c1` (stereo partly drawn) [Example 164, N-{[(1r,4r)-4-{6-[1-(1-chloro-3-hydroxypropan-2-yl)-1H-pyrazol-4-yl]-2H-indazol-2-yl}cyclohexyl]methyl}-3,5-difluoro-4-hydroxybenzamide, trifluoroacetate salt], for which the IC50 amounted to 230 nM.

Turning to `O=C(NC[C@H]1CC[C@H](n2cc3cc(-c4cnn(C(F)F)c4)ccc3n2)CC1)c1cc(F)c(O)c(F)c1F` [Example 161, N-{[(1r,4r)-4-{5-[1-(difluoromethyl)-1H-pyrazol-4-yl]-2H-indazol-2-yl}cyclo-hexyl]methyl}-2,3,5-trifluoro-4-hydroxy-benzamide], the IC50 amounted to 180 nM.

In the case of `Cc1cn(-c2ccc3cn([C@H]4CC[C@H](CNC(=O)c5cc(F)c(O)c(F)c5F)CC4)nc3c2)cn1` [Example 163, 2,3,5-trifluoro-4-hydroxy-N-({(1r,4r)-4-[6-(4-methyl-1H-imidazol-1-yl)-2H-indazol-2-yl]cyclo-hexyl}methyl) benzamide], the IC50 was determined as 330 nM.

As for `Cc1nsc(-c2ccc3cn([C@H]4CC[C@H](CNC(=O)c5cc(F)c(O)c(F)c5)CC4)nc3c2)n1` [Example 107, 3,5-difluoro-4-hydroxy-N-({(1r,4r)-4-[6-(3-methyl-1,2,4-thiadiazol-5-yl)-2H-indazol-2-yl]cyclo-hexyl}methyl) benzamide], the IC50 came out at 160 nM.

As for `O=C(NC[C@]12CC[C@](n3cc4ccc(-c5cnccn5)cc4n3)(CC1)CC2)c1cc(F)c(O)c(F)c1` [Example 208, 3,5-difluoro-4-hydroxy-N-({4-[6-(pyrazin-2-yl)-2H-indazol-2-yl]bicyclo [2.2.2]octan-1-yl}methyl)benzamide], the IC50 amounted to 120 nM.

Take `O=C(NC[C@H]1CC[C@H](c2cn3cc(-c4cnn(C(F)F)c4)ccc3n2)CC1)c1cc(F)c(O)c(F)c1F` [Example 167, N-{[(1r,4r)-4-{6-[1-(difluoromethyl)-1H-pyrazol-4-yl]imidazo [1,2-a]pyridin-2-yl}cyclohexyl]methyl}-2,3,5-trifluoro-4-hydroxy-benzamide, trifluoroacetate salt]: the IC50 was 200 nM.

On to `O=C(NC[C@H]1CC[C@H](n2cc3ccc(-n4cc(C(F)(F)F)cn4)cc3n2)CC1)c1cc(F)c(O)c(F)c1F` [Example 11, 2,3,5-Trifluoro-4-hydroxy-N-{[(1r,4r)-4-{6-[4-(trifluoromethyl)-1H-pyrazol-1-yl]-2H-indazol-2-yl}cyclohexyl]methyl}benzamide, trifluoroacetate salt], for which the IC50 was found to be 240 nM.

For the compound `COc1nc(-c2ccc3cn([C@H]4CC[C@H](CNC(=O)c5cc(F)c(O)c(F)c5)CC4)nc3c2)nn1C` [Example 86, 3,5-difluoro-4-hydroxy-N-({(1r,4r)-4-[6-(5-methoxy-1-methyl-1H-1,2,4-triazol-3-yl)-2H-indazol-2-yl]cyclohexyl}methyl) benzamide], the IC50 stood at 270 nM.

Regarding `O=C(NC[C@H]1CC[C@H](n2cc3cc(OCc4cccc(C(F)(F)F)n4)ncc3n2)CC1)c1cc(F)c(O)c(F)c1` [Example 33, 3,5-difluoro-4-hydroxy-N-{[(1r,4r)-4-(5-{[6-(trifluoromethyl)pyridin-2-yl]methoxy}-2H-pyrazolo[3,4-c]pyridin-2-yl)cyclohexyl]methyl}benzamide], the IC50 stood at 380 nM.

As for `O=C(NC[C@H]1CC[C@H](c2nc(-c3cnc(C(F)(F)F)cn3)no2)CC1)c1cc(F)c(O)cc1F` [Example 149, 2,5-difluoro-4-hydroxy-N-{[(1r,4r)-4-{3-[5-(trifluoromethyl)pyrazin-2-yl]-1,2,4-oxadiazol-5-yl}cyclohexyl]methyl} benzamide], the IC50 was found to be 430 nM.

Regarding `O=C(NC[C@H]1CC[C@H](n2cc3cnc(-c4cccnc4)cc3n2)CC1)c1cc(F)c(O)c(F)c1` [Example 189, 3,5-difluoro-4-hydroxy-N-({(1r,4r)-4-[6-(pyridin-3-yl)-2H-pyrazolo[4,3-c]pyridin-2-yl]cyclohexyl}methyl) benzamide], the IC50 turned out to be 430 nM.

Turning to `O=C(NC[C@H]1CC[C@H](n2cc3ccc(-c4ncc5c(n4)COC5)cc3n2)CC1)c1cc(F)c(O)c(F)c1` [Example 101, N-({(1r,4r)-4-[6-(5,7-dihydrofuro[3,4-d]pyrimidin-2-yl)-2H-indazol-2-yl]cyclohexyl}methyl)-3,5-difluoro-4-hydroxybenzamide], the IC50 worked out at 140 nM.

With `O=C(NC[C@]12CC[C@](n3cc4ccc(Br)cc4n3)(CC1)CC2)c1cc(F)c(O)c(F)c1` [Example 205, N-{[4-(6-bromo-2H-indazol-2-yl)bicyclo[2.2.2]octan-1-yl]methyl}-3,5-difluoro-4-hydroxybenzamide], the IC50 amounted to 220 nM.

In the case of `Cc1nnc(-c2ccc3cn([C@H]4CC[C@H](CNC(=O)c5cc(F)c(O)c(F)c5)CC4)nc3c2)s1` [Example 102, 3,5-difluoro-4-hydroxy-N-({(1r,4r)-4-[6-(5-methyl-1,3,4-thiadiazol-2-yl)-2H-indazol-2-yl]cyclohexyl}methyl) benzamide, ammonium salt], the IC50 was determined as 200 nM.

For the compound `O=C(NC[C@]12CC[C@@](c3nc(-c4ncc(C(F)(F)F)cn4)no3)(CC1)CC2)c1cc(F)c(O)c(F)c1F` [Example 3, 2,3,5-Trifluoro-4-hydroxy-N-[(4-{3-[5-(trifluoromethyl)pyrimidin-2-yl]-1,2,4-oxadiazol-5-yl}bicyclo[2.2.2]octan-1-yl)methyl]benzamide], the IC50 was determined as 130 nM.

On to `Cc1cc(-c2ccc3cn([C@H]4CC[C@H](CNC(=O)c5cc(F)c(O)c(F)c5)CC4)nc3c2)ncn1` [Example 87, 3,5-difluoro-4-hydroxy-N-({(1r,4r)-4-[6-(6-methylpyrimidin-4-yl)-2H-indazol-2-yl]cyclohexyl}methyl) benzamide], for which the IC50 came to 130 nM.

On to `Cn1cc(-c2ccc3nc([C@H]4CC[C@H](CNC(=O)c5cc(F)c(O)c(F)c5F)CC4)cn3c2)cn1` [Example 29, 2,3,5-trifluoro-4-hydroxy-N-({(1r,4r)-4-[6-(1-methyl-1H-pyrazol-4-yl)imidazo[1,2-a]pyridin-2-yl]cyclohexyl}methyl)benzamide], for which the IC50 amounted to 350 nM.

Turning to `O=C(NC[C@H]1CC[C@H](n2cc3ccc(-c4cnn(CC(F)F)c4)cc3n2)CC1)c1cc(F)c(O)c(F)c1` [Example 10, N-{[(1r,4r)-4-{6-[1-(2,2-Difluoroethyl)-1H-pyrazol-4-yl]-2H-indazol-2-yl}cyclohexyl]methyl}-3,5-difluoro-4-hydroxybenzamide, trifluoroacetate salt], the IC50 amounted to 120 nM.

Turning to `Cn1cc(-c2ccc3cn([C@H]4CC[C@H](CNC(=O)c5cc(F)c(O)c(F)c5)CC4)nc3c2)nn1` [Example 79, 3,5-difluoro-4-hydroxy-N-({(1r,4r)-4-[6-(1-methyl-1H-1,2,3-triazol-4-yl)-2H-indazol-2-yl]cyclohexyl}methyl) benzamide], the IC50 turned out to be 370 nM.

As to `O=C(NC[C@]12CC[C@](n3cc4ccc(-c5ncccn5)cc4n3)(CC1)CC2)c1cc(F)c(O)c(F)c1` [Example 207, 3,5-difluoro-4-hydroxy-N-({4-[6-(pyrimidin-2-yl)-2H-indazol-2-yl]bicyclo [2.2.2]octan-1-yl}methyl)benzamide], the IC50 worked out at 140 nM.

In the case of `CC(C)(C)OC(=O)N[C@]12CC[C@](CNC(=O)c3cc(F)c(O)c(F)c3)(CC1)CC2` [Example 192, tert-butyl {4-[(3,5-difluoro-4-hydroxybenzamido)methyl]bicyclo[2.2.2]octan-1-yl}carbamate], the IC50 is 480 nM.

On to `O=C(NC[C@H]1CC[C@H](n2cc3ccc(-c4ncns4)cc3n2)CC1)c1cc(F)c(O)c(F)c1` [Example 82, 3,5-difluoro-4-hydroxy-N-({(1r,4r)-4-[6-(1,2,4-thiadiazol-5-yl)-2H-indazol-2-yl]cyclohexyl}methyl) benzamide], for which the IC50 was found to be 120 nM.

For the compound `O=C(NC[C@H]1CC[C@H](n2cc3ccc(-c4cnc5[nH]ccc5c4)cc3n2)CC1)c1cc(F)c(O)c(F)c1` [Example 112, 3,5-difluoro-4-hydroxy-N-({(1r,4r)-4-[6-(1H-pyrrolo[2,3-b]pyridin-5-yl)-2H-indazol-2-yl]cyclohexyl}methyl) benzamide, trifluoroacetate salt], the IC50 was 220 nM.
